According to EP4660196A1, “CRYSTAL FORM OF COMPOUND, PREPARATION METHOD THEREFOR AND USE THEREOF” (Felicamed Biotechnology Co., Ltd., priority 2023, dated 2024):
Where “and” joins values, the source holds several entries; their conditions need not be identical. Equal values may be shown once. Read-outs that look alike come from different tables or passages of the source.

Key:
[1] = Mechanical stability (grinding, tableting at 350 MPa, XRPD); assay type: physicochemical
[2] = for Carr index: (tapped density - bulk density) / tapped density; for Average angle of repose (°) / Average bulk density / Average tapped density: mean of three tests
Method: A method for testing the density and the tapped density included: (1) a certain mass of to-be-assessed sample was placed into a 5 mL measuring cylinder, and the volume at this moment was recorded. The bulk density was calculated by dividing the mass of the sample by the volume at this moment. (2) The measuring cylinder was slightly tapped 200 times, the final volume was recorded, and the tapped density was calculated by dividing the mass of the sample by the final volume. (3) Three parallel tests were conducted. A method for testing the angle of repose included: (1) a funnel was fixed vertically to a bottom surface, and the material was slowly placed into the funnel. (2) A well-proportioned cone of the material was formed on the bottom surface. The height and bottom surface diameter of the cone were measured. (3) Three parallel tests were conducted.
Angle of repose α = […], where h is the cone height, and D is the cone diameter.

[3] = assay type: physicochemical; details: for S: solubility: 1440 min; for FC: crystal transfer: XRPD of solid; for pH: pH of filtrate
[4] = Solid-state stability (XRPD, UPLC purity); details: for Crystal form Transform: XRPD; for Purity (area%): starting purity 99.82 (hydrochloride), 99.72 (free); for Area (%): UPLC main peak (#Peak 1, RRT 1.00)
[5] = single values of three parallel tests

## CC[S@@](=N)(=O)C[C@H]1CC[C@H](N(C)c2ncnc3[nH]ccc23)CC1 [Free crystal form A]
[1]; manual grinding
  Results of mechanical stability After grinding: The crystal form remains unchanged, but the crystallinity is slightly reduced
[1]; tablet press, 350 MPa
  Results of mechanical stability After tableting: The crystal form remains unchanged, but the crystallinity is slightly reduced
[2]
  Carr index: 51%
  Average angle of repose (°): 47.1 °
  Average bulk density: 0.11 g/mL
  Average tapped density: 0.23 g/mL
[2]; listed as free crystal form A
  Carr index: 51%
  Average angle of repose (°): 47.1 °
  Average bulk density: 0.11 g/mL
  Average tapped density: 0.23 g/mL
[2]; [5]
  Angle of repose (°): 49.0 ° and 47.3 ° and 45.0 °
  Bulk density: 0.11 g/mL
[2]; tapped 200 times, single values of three parallel tests
  Tapped density: 0.23 g/mL and 0.22 g/mL
[3]; Buffer (pH=4.5), room temperature, 24 h, calculated as free form
  S: solubility: >9100 µg/mL
[3]; Buffer (pH=2.0), 24 h
  FC: crystal transfer: No
[3]; Buffer (pH=7.4), 24 h
  FC: crystal transfer: No
[3]; buffer, pH 2, 1440 min
  S: solubility: 6200 µg/mL
[3]; buffer, pH 4.5, 1440 min
  S: solubility: > 9100 µg/mL
[3]; Buffer (pH=2.0), room temperature, 24 h
  pH: 5.6
[3]; Buffer (pH=4.5), room temperature, 24 h
  pH: 5.0
[3]; Buffer (pH=7.4), room temperature, 24 h
  pH: 7.4
[4]; 25°C/60% RH/4 weeks, open
  Crystal form Transform: No
  Purity (area%): 99.71 area%
[4]; 40°C/75% RH/4 weeks, open
  Crystal form Transform: No
  Purity (area%): 99.72 area%
[4]; 80°C/1 d, closed
  Crystal form Transform: No
[4]; 25°C/60% RH/4 weeks
  Area (%): 99.71%
[4]; 40°C/75% RH/4 weeks
  Area (%): 99.72%
[4]; 80°C/1 d
  Area (%): 99.71%
